We go through 11 compounds from patent EP0449699A2, “Pyrazole derivatives as angiotensin II-receptor antagonists, process for their preparation and pharmaceutical compositions containing them” (LABORATOIRES UPSA, priority 1990, dated 1991).

The subject of the experiment is récepteurs surrénaliens de l'angiotensine II. Put plainly: Displacement of radioligand [125I]-SIAII specifically bound to adrenal angiotensin II receptors (rat adrenal homogenate). It is filed as binding. Particulars: 60 min, 25°C. The text has this:
L'affinité des produits des exemples pour les récepteurs de l'angiotensine II est évaluée par technique de déplacement d'un radioligand spécifiquement fixé sur les récepteurs surrénaliens de l'angiotensine Il, chez le rat.
Une aliquote d'un homogénat de surrénales de rat incube en présence d'une concentration unique de [^125I]-SIAII (Sar^1, Tyr^4, Ile^8 - angiotensine II), antagoniste des récepteurs de l'angiotensine II, et de deux concentrations d'agents compétiteurs (10^-5 M, 10-^7 M) durant 60 min à 25°C.
La réaction est achevée par ajout de tampon, puis rapide filtration à travers des filtres de papier de verre. La liaison non spécifique est déterminée en présence d'angiotensine Il.
Les résultats sont exprimés, pour les concentrations testées, en pourcentage de déplacement du radioligand spécifiquement fixé sur les récepteurs surrénaliens de l'angiotensine Il.

Take `CCCc1nn(C)c(COC)c1Cc1ccc(-c2ccccc2-c2nnn[nH]2)cc1` [Exemple 117, Méthyl-1 n-propyl-3 [(tétrazolyl-5)-2'biphényl-yl-4] méthyl-4 méthoxy méthyl-5 pyrazole]: the “% de déplacement du ligand marqué” value is 61% (competitor 1E-5 M, 10 µM) and 35% (competitor 1E-7 M, 0.1 µM).
For `CCCCc1nn(C)c(COC)c1Cc1ccc(-c2ccccc2-c2nnn[nH]2)cc1` [Exemple 118, Méthyl-1 n-Butyl-3 [(tétrazolyl-5)2' biphényl-yl-4] méthyl-4 méthoxy méthyl-5 pyrazole], in that order: 67% and 35%.
For `CCCc1nn(C)c(OCC(=O)OC)c1Cc1ccc(-c2ccccc2NS(=O)(=O)C(F)(F)F)cc1` [Exemple 135, [Méthyl-1 n-Propyl-3 (trifluoro méthyl sulfonyl amlmo-2'blphényl-yl-4)méthyl-4 pyrazol-yl-5] oxy acétatede méthyle], in that order: 65% and 34%.
For the compound `CCCc1n[nH]c(COC)c1Cc1ccc(NC(=O)c2ccccc2S(=O)(=O)O)cc1` [Exemple 108, Acide [(n-propyl-3 méthoxy méthyl-5 pyrazol-yl-4)méthylphényl-yl-4] amino carbonyl-2 benzène sulfonique], the “% de déplacement du ligand marqué” value reads like this: (competitor 1E-5 M, 10 µM) 86%; (competitor 1E-7 M, 0.1 µM) 19%.
Take `CCCc1nn(C)c(CO)c1Cc1ccc(NC(=O)c2ccccc2S(=O)(=O)O)cc1` [Exemple 115, Acide [(méthyl-1 n-propyl-3 hydroxy méthyl-5 pyrazol-yl-4)méthylphényl-yl-4] amino carbonyl-2 benzène sulfonique]: the “% de déplacement du ligand marqué” value (competitor 1E-5 M, 10 µM) worked out at 80% and the “% de déplacement du ligand marqué” value (competitor 1E-7 M, 0.1 µM) is on record as 57%.
The matching figures for `CCCc1nn(CC(F)(F)F)c(OCCO)c1Cc1ccc(NC(=O)c2ccccc2S(=O)(=O)O)cc1` [Exemple 63, Acide [[(trffiuoro-2,2,2 éthyl)-1 n-Propyl-3 (hydroxy-2 éthoxy)-5 pyrazol-yl-4]méthyl-4 phényl-yl-4] amino carbonyl-2 benzène sulfonique]: 91% and 64%.
The matching figures for `CCCc1nn(C)c(O)c1Cc1ccc(-c2ccccc2-c2nnn[nH]2)cc1` [Exemple 71, Méthyl-1 n-Propyl-3 hydroxy-5 [(tétrazolyl-5)-2' biphényl-yl-4] méthyl-4 pyrazole]: 58% and 24%.
The matching figures for `CCCCc1nn(C)c(OCC(=O)OCC)c1Cc1ccc(-c2ccccc2-c2nn[nH]n2)cc1` [Exemple 90, [Méthyl-1 n-Butyl-3 [(tétrazolyl-5)-2'blphényl-yl-4]méthyl-4 pyrazol-yl-5] oxy acétate d'éthyle]: 64% and 40%.
`CCCc1nn(C)c(OC(=O)N(CC)CC)c1Cc1ccc(NC(=O)c2ccccc2S(=O)(=O)O)cc1` [Exemple 57, Acide [[Méthyl-1 n-Propyl-3 (N,N-diéthyl carbamoyl)oxy-5 pyrazol-yl-4]méthylphényl-yl-4] amino carbonyl-2 benzène sulfonique]: the “% de déplacement du ligand marqué” value is reported as 80% (competitor 1E-5 M, 10 µM) and 60% (competitor 1E-7 M, 0.1 µM).
The matching figures for `CCCCc1nn(C)c(OCC(=O)OCC)c1Cc1ccc(NC(=O)c2ccccc2C(=O)O)cc1` [Exemple 27, [Méthyl-1 n-butyl-3 ((carboxy-2 benzoyl amino)-4 benzyl)-4 pyrazol-yl-5] oxyacétate d'éthyle]: 92% and 39%.
The matching figures for `CCCCc1nn(C)c(OCC(=O)N2CCOCC2)c1Cc1ccc(NC(=O)c2ccccc2NS(=O)(=O)C(F)(F)F)cc1` [Exemple 130, N-[[Méthyl-1 n-Butyl-3 [(trifluoro méthyl sulfonyl amino-2 benzoyl)amino-4 benryl]-4 pyrazol-yl-5]oxyacétyl] morpholine]: 74% and 33%.
